Each structure is given as a SMILES string.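 96-well plates; 48 h exposure; 5 concentrations. Endpoints by linear interpolation between flanking doses. Not reached: highest tested concentration assigned. GI50: concentration for 50% inhibition of growth.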 Activity calls are given as the source filed them. Cut-off read from the data, not from the text of the source: active = GI50 up to about 1.1 µM and inactive = higher. Some results are limits rather than exact numbers.

We go through eleven compounds from ChEMBL document CHEMBL1201862, “PubChem BioAssay data set” (2004).

Test in all cases: NCI anticancer screen, dose series, 48 h
The subject of experiment [1] is 786-0.
Experiment [2] has as its system A498.
The test system of experiment [3] is CAKI-1.
For experiment [4], the system named is COLO 205.
For experiment [5], the system named is HCT-116.
Experiment [6] has as its system HL-60.
Experiment [7] deals with HOP-62.
The test system of experiment [8] is HT-29.
The test system of experiment [9] is KM12.
Experiment [10] deals with M14.
For experiment [11], the system named is MDA-MB-435.
The subject of experiment [12] is MDA-N.
For experiment [13], the system named is Malme-3M.
In experiment [14] the test system is OVCAR-5.
Experiment [15] relates to SK-MEL-5.
Experiment [16] has as its system SR.
In experiment [17] the test system is U-251.
Experiment [18] relates to IGROV-1.
The subject of experiment [19] is LOX IMVI.
Experiment [20] has as its system RPMI-8226.

On to `O=C(c1cccs1)N(C(=O)N1CCN(c2ccccc2)CC1)S(=O)(=O)c1ccccc1`, for which the GI50 was 23.2 µM (inactive) in experiment [1]; 62.2 µM (inactive) in [2]; 21.2 µM (inactive) in experiment [3]; 16.4 µM (inactive) in [4]; 20.2 µM (inactive) in [5]; 19.4 µM (inactive) in experiment [6]. Besides, the GI50 in experiment [7] is 29.6 µM (inactive); in experiment [8], 30.5 µM (inactive); in experiment [9] it was 31.4 µM (inactive); in experiment [10], 17.7 µM (inactive); in experiment [11], 25.2 µM (inactive); in experiment [12], 19.3 µM (inactive). Besides, the GI50 in experiment [13] was 19.8 µM (inactive); in experiment [14], 22.7 µM (inactive); in experiment [15], 17 µM (inactive); in [16], 21.8 µM (inactive); in experiment [17], 17.5 µM (inactive).

Consider `CNC(=O)OCC1=C(COC(=O)NC)CN(c2ccccc2)C1`, for which the GI50 in experiment [1], in experiment [2], in experiment [4], in experiment [5], in [7] and in experiment [8] was > 100 µM (inactive) each time. For the same compound, the GI50 in [18], in experiment [9], in [19], in experiment [10], in [11] and in experiment [12] was > 100 µM (inactive) in each case. Besides, the GI50 in [13], in experiment [14], in [20], in [15], in experiment [16] and in experiment [17] was > 100 µM (inactive) in each case.

As for `O=C1Cc2cn[nH]c2-c2ccccc2N1`, the GI50 in [1] was 41.8 µM (inactive); in [2] it was > 94.4 µM (inactive); in experiment [4], 29 µM (inactive); in experiment [5], 26.5 µM (inactive); in [6], 29.8 µM (inactive); in experiment [7] it was 32.1 µM (inactive). Also, the GI50 in [8] was 34.9 µM (inactive); in experiment [18], 39.2 µM (inactive); in experiment [9], 33.2 µM (inactive); in [19] it was 16.3 µM (inactive); in experiment [10] it was 22.5 µM (inactive); in experiment [11], 22.3 µM (inactive). Besides, the GI50 in experiment [12] was 35.2 µM (inactive); in experiment [13] it was > 46.7 µM (inactive); in [14], 30.3 µM (inactive); in experiment [20] it was 17.1 µM (inactive); in experiment [15] it was 26.4 µM (inactive); in experiment [16], 21.7 µM (inactive). Besides, the GI50 in experiment [17] is 23.6 µM (inactive).

In the case of `c1ccc(C2=NCCc3cc4c(cc32)OCO4)cc1`, the GI50 in [1], in experiment [2], in [3], in experiment [4], in experiment [7] and in experiment [18] was > 100 µM (inactive) each time. Also, the GI50 in experiment [9], in experiment [19], in [10], in experiment [11], in [12] and in [13] was > 100 µM (inactive) each time. Besides, the GI50 in [14], in [15], in [16] and in experiment [17] was > 100 µM (inactive) each time.

With `CC1CCc2sc3nc(S)n(C)c(=O)c3c2C1` (stereo not given), the GI50 in [1] is 50.8 µM (inactive); in experiment [3], 39.2 µM (inactive); in experiment [4], 67.5 µM (inactive); in experiment [5], 34.5 µM (inactive); in experiment [6], 2.85 µM (inactive); in experiment [7] it was 39.7 µM (inactive). Also, the GI50 is 40 µM (inactive) in experiment [8]; 37.4 µM (inactive) in experiment [18]; 42.8 µM (inactive) in experiment [9]; 33.7 µM (inactive) in experiment [19]; 34.3 µM (inactive) in experiment [10]; 50.5 µM (inactive) in [11]. In addition, the GI50 in experiment [12] was 44 µM (inactive); in experiment [13], 53.6 µM (inactive); in experiment [14], 73.1 µM (inactive); in [20] it was 36.7 µM (inactive); in experiment [15], 35.1 µM (inactive); in experiment [16] it was 34 µM (inactive). Further, the GI50 in experiment [17] is 41.8 µM (inactive).

On to `COc1ccc(/C=C2\C[C@H]3[C@@H]4CCC5=C/C(=N/O)CC[C@]5(C)[C@H]4CC[C@]3(C)\C2=N\O)cc1`, for which the GI50 is 13.1 µM (inactive) in experiment [1]; 38.3 µM (inactive) in [3]; 14.5 µM (inactive) in experiment [4]; 5.21 µM (inactive) in experiment [5]; < 0.01 µM (active) in experiment [6]; 34.4 µM (inactive) in experiment [7]. Moreover, the GI50 in [8] was 6.85 µM (inactive); in experiment [18] it was 37.3 µM (inactive); in experiment [9], 12.2 µM (inactive); in experiment [19], 17.9 µM (inactive); in experiment [10], 12.4 µM (inactive); in experiment [11] it was 26.5 µM (inactive). Also, the GI50 in experiment [12] is 15.6 µM (inactive); in experiment [13], 34.1 µM (inactive); in [14], 36.3 µM (inactive); in experiment [20], 5.12 µM (inactive); in [15], 11 µM (inactive); in experiment [16] it was 3.99 µM (inactive). For the same compound, in experiment [17], the GI50 is 25.3 µM (inactive).

As for `CCOC(=O)C(NCc1ccc2c(c1)OCO2)(NC(=O)c1ccccc1)C(F)(F)F` (stereo not given), the GI50 in [1] is > 100 µM (inactive); in experiment [3], > 100 µM (inactive); in [4], > 100 µM (inactive); in experiment [5], 89.1 µM (inactive); in experiment [6], 16.9 µM (inactive); in experiment [7] it was > 100 µM (inactive). In addition, the GI50 in [8] is > 100 µM (inactive); in [18], > 100 µM (inactive); in [9], 88.1 µM (inactive); in [19], > 100 µM (inactive); in [10], > 100 µM (inactive); in [11] it was > 100 µM (inactive). Moreover, the GI50 was > 100 µM (inactive) in [12]; > 100 µM (inactive) in experiment [13]; > 100 µM (inactive) in [14]; 34.7 µM (inactive) in experiment [20]; > 100 µM (inactive) in experiment [15]; 36 µM (inactive) in experiment [16]. The GI50 in experiment [17] was > 100 µM (inactive).

On to `CCOC(=O)c1nc2cc(C(F)(F)F)ccc2nc1Nc1ccc(OC)cc1`, for which the GI50 in experiment [1] was 47.4 µM (inactive); in experiment [2], > 100 µM (inactive); in [3] it was > 100 µM (inactive); in experiment [4], 47.4 µM (inactive); in [5], 46.1 µM (inactive); in experiment [6], > 100 µM (inactive). Besides, the GI50 in [7] is 42.5 µM (inactive); in experiment [8], > 100 µM (inactive); in [18], > 100 µM (inactive); in experiment [9], > 100 µM (inactive); in experiment [19], 41.5 µM (inactive); in experiment [10], > 100 µM (inactive). The GI50 in experiment [11], in experiment [12], in experiment [14], in [20], in experiment [15] and in experiment [16] was > 100 µM (inactive) throughout.

`Clc1ccc(Cc2nc3ccccc3o2)cc1`: the GI50 in experiment [1] was 96.4 µM (inactive); in [3], 54.8 µM (inactive); in experiment [4], 74.6 µM (inactive); in experiment [5], 66.7 µM (inactive); in [6], 40.2 µM (inactive); in experiment [7], > 100 µM (inactive). Moreover, the GI50 in experiment [8] is 40.2 µM (inactive); in [18] it was > 100 µM (inactive); in experiment [9], 69.8 µM (inactive); in experiment [19], > 100 µM (inactive); in [10] it was > 100 µM (inactive); in experiment [11], > 100 µM (inactive). The GI50 was > 100 µM (inactive) in experiment [12]; > 100 µM (inactive) in experiment [13]; > 100 µM (inactive) in experiment [14]; 27.6 µM (inactive) in experiment [20]; 31.3 µM (inactive) in experiment [15]; 50.5 µM (inactive) in experiment [16]. For the same compound, the GI50 in experiment [17] is 72.1 µM (inactive).

Take `O=C(O)C(O)c1ccc(F)cc1` (stereo not given): the GI50 in experiment [1], in experiment [2], in experiment [3], in [5], in [7] and in experiment [8] was > 100 µM (inactive) throughout. For the same compound, the GI50 in experiment [18], in experiment [9], in experiment [19], in experiment [10], in experiment [11] and in experiment [12] was > 100 µM (inactive) each time. In addition, the GI50 in experiment [13], in experiment [14], in [20], in experiment [16] and in experiment [17] was > 100 µM (inactive) in each case.

Take `COc1ccc2c(-c3ccc(OCCN(C)C)cc3)c(Oc3ccc(Cl)cc3)c(=O)oc2c1`: the GI50 in experiment [1] is 2.59 µM (inactive); in experiment [2], 14 µM (inactive); in [3], 11.1 µM (inactive); in experiment [4], 2.23 µM (inactive); in experiment [5], 2.63 µM (inactive); in [7], 4.21 µM (inactive). The GI50 in experiment [8] was 6.56 µM (inactive); in experiment [18] it was 3.37 µM (inactive); in [9] it was 3.66 µM (inactive); in [19], 2.19 µM (inactive); in experiment [10] it was 1.74 µM (inactive); in [11], 2.85 µM (inactive). For the same compound, the GI50 in [12] was 2.06 µM (inactive); in experiment [13], 1.74 µM (inactive); in [14], 15.6 µM (inactive); in experiment [20], 4.05 µM (inactive); in experiment [15] it was 1.64 µM (inactive); in experiment [16], 2 µM (inactive). Moreover, the GI50 in experiment [17] was 3.4 µM (inactive).
